The values that follow come from PMC8933873 (European Journal of Medicinal Chemistry, 2022).

Series [1] relates to SARS-CoV-2 virus strain hCoV-19/Taiwan/4/2020. The format is cell-based.
For series [2] the following is noted: GI permeability, 50 μM, 25 °C, 3 h.
Series [3] relates to SARS-CoV-2. Conditions: read-out: Anti-SARS-CoV-2 IC50; literature value; cited from earlier work.
For the next series, the system named is TMEM16F. Format: cell-based. Conditions: 1 h treatment, Vero E6 cells, annexin XII.
The next series is described as follows: in vitro. The note with it: PAMPA.
Series [4] relates to SARS-CoV-2. Kind of series: Quantification of SARS-CoV-2 viral load via antibody staining. The format is cell-based.
Another series has as its system COVID-19. The note with it: non-hospitalized adult patients with mild-to-moderate COVID-19, phase 3 study; cited from earlier work.

Like-named read-outs stand apart in the source and are kept apart here.

On to “5-Chloro-N-(3-hydroxybenzyl)-2-hydroxybenzamide [Compound 13]”, for which, in series [1], the “antiviral efficacy in CPE screening” value is “inactive”. Moreover, the PAMPA in series [2] is on record as 15.9 10^−6 cm/s. The corresponding values for “5-Chloro-N-(4-hydroxybenzyl)-2-hydroxybenzamide [Compound 14]” are “inactive” and 33.1 10^−6 cm/s. As to `O=C(Nc1ccc([N+](=O)[O-])cc1Cl)c1cc(Cl)ccc1O` [Compound 1, 5-Chloro-N-(2-chloro-4-nitrophenyl)-2-hydroxybenzamide], the 50% inhibitory concentration (IC50) – broadly, the concentration that gives 50% inhibition – in the series on SARS-CoV-2 [3] was 340 nM. For the same compound, in the series with TMEM16F (100 nM), the “phosphatidylserine externalization triggered by ionomycin” value is “significantly reduced the signal of phosphatidylserine on cell surface”. Further, in series [2], the PAMPA was 8.5 10^−6 cm/s. With `O=C(Nc1ccccc1)c1cc(Cl)ccc1O` [Compound 2, 5-Chlorosalicylanilide], the “antiviral efficacy in CPE screening” value in series [1] is on record as “antiviral efficacy that were superior to their cytotoxicity”. Further, the PAMPA in series [2] is given as 16.0 10^−6 cm/s. For `O=C(Nc1ccc([N+](=O)[O-])cc1)c1cc(Cl)ccc1O` [Compound 3, 5-Chloro-N-(4-nitrophenyl)-2-hydroxybenzamide], in “in vitro”, the Papp (commonly a coefficient for how fast a substance crosses the barrier) stood at 12.4 ×10⁻⁶ cm/s. In addition, the “antiviral efficacy in CPE screening” value in series [1] was “antiviral efficacy that were superior to their cytotoxicity”. Consider `O=C(Nc1cccc([N+](=O)[O-])c1)c1cc(Cl)ccc1O` [Compound 4, 5-Chloro-N-(3-nitrophenyl)-2-hydroxybenzamide], for which the “antiviral efficacy in CPE screening” value in series [1] is on record as “antiviral efficacy that were superior to their cytotoxicity”. Besides, the PAMPA in series [2] is 19.5 10^−6 cm/s. As to `O=C(Nc1ccc([N+](=O)[O-])c(Cl)c1)c1cc(Cl)ccc1O` [Compound 5, 5-Chloro-N-(3-chloro-4-nitrophenyl)-2-hydroxybenzamide], the “anti-SARS-CoV-2 activity relative to niclosamide” value with SARS-CoV-2 [4] came to 7 fold. `O=C(Nc1cccc(Cl)c1)c1cc(Cl)ccc1O` [Compound 6, 5-Chloro-N-(3-chlorophenyl)-2-hydroxybenzamide]: in series [1], the “antiviral efficacy in CPE screening” value is on record as “antiviral efficacy that were superior to their cytotoxicity”. Also, the PAMPA in series [2] is on record as 8.6 10^−6 cm/s. The corresponding values for `O=C(Nc1ccc(F)c(Cl)c1)c1cc(Cl)ccc1O` [Compound 7, 5-Chloro-N-(3-chloro-4-fluorophenyl)-2-hydroxybenzamide] are “diminished” and 11.5 10^−6 cm/s.

`O=C(Nc1ccc(F)cc1)c1cc(Cl)ccc1O` [Compound 8, 5-Chloro-N-(4-fluorophenyl)-2-hydroxybenzamide] showed a Papp in “in vitro” of 18.2 ×10⁻⁶ cm/s. In series [1], the “antiviral efficacy in CPE screening” value is “inactive”. As to `O=C(Nc1cccc(F)c1)c1cc(Cl)ccc1O` [Compound 9, 5-Chloro-N-(3-fluorophenyl)-2-hydroxybenzamide], in series [1], the “antiviral efficacy in CPE screening” value was “inactive”. Besides, the PAMPA in series [2] is listed as 3.7 10^−6 cm/s. The corresponding values for `O=C(Nc1ccc(C(F)(F)F)cc1)c1cc(Cl)ccc1O` [Compound 10, 5-Chloro-N-(4-trifluoromethylphenyl)-2-hydroxybenzamide] are “antiviral efficacy that were superior to their cytotoxicity” and 6.9 10^−6 cm/s.

In the case of `O=C(Nc1cccc(C(F)(F)F)c1)c1cc(Cl)ccc1O` [Compound 11, 5-Chloro-N-(3-trifluoromethylphenyl)-2-hydroxybenzamide], the “antiviral efficacy in CPE screening” value in series [1] is reported as “antiviral efficacy that were superior to their cytotoxicity”. Also, in series [2], the PAMPA is 4.2 10^−6 cm/s. As for `CC(C)(C)c1cccc(NC(=O)c2cc(Cl)ccc2O)c1` [Compound 12, 5-Chloro-N-(3-tert-butylphenyl)-2-hydroxybenzamide], in series [1], the “antiviral efficacy in CPE screening” value was “antiviral efficacy that were superior to their cytotoxicity”. The PAMPA in series [2] is on record as 18.7 10^−6 cm/s. On the same counts, the results for `O=C(Nc1ccc(N2CCCCC2)cc1)c1cc(Cl)ccc1O` [Compound 15, 5-Chloro-N-(4-(piperidin-1-yl)phenyl)-2-hydroxybenzamide] are “inactive” and 43.3 10^−6 cm/s. With `Cc1ccc(CNC(=O)c2cc(Cl)ccc2O)cc1` [Compound 16, 5-Chloro-N-(4-methylbenzyl)-2-hydroxybenzamide], the “antiviral efficacy in CPE screening” value in series [1] is reported as “did not show viral inhibition”. The PAMPA in series [2] was 42.6 10^−6 cm/s. On the same counts, the results for `Cc1cccc(CNC(=O)c2cc(Cl)ccc2O)c1` [Compound 17, 5-Chloro-N-(3-methylbenzyl)-2-hydroxybenzamide] are “did not show viral inhibition” and 28.4 10^−6 cm/s. On the same counts, the results for `O=C(Nc1ccc([N+](=O)[O-])cc1Cl)c1ccccc1O` [Compound 18, N-(2-chloro-4-nitrophenyl)-2-hydroxybenzamide] are “antiviral efficacy that were superior to their cytotoxicity” and 15.3 10^−6 cm/s. `O=C(Nc1ccc([N+](=O)[O-])cc1Cl)c1ccccc1` [Compound 19, N-(2-chloro-4-nitrophenyl)benzamide]: the PAMPA in series [2] is listed as 42.2 10^−6 cm/s. With `Cc1ccc(O)c(C(=O)Nc2ccc([N+](=O)[O-])cc2Cl)c1` [Compound 20, 5-Methyl-N-(2-chloro-4-nitrophenyl)-2-hydroxybenzamide], the “antiviral efficacy in CPE screening” value in series [1] is “diminished”. Further, the PAMPA in series [2] was 20.9 10^−6 cm/s. Consider `Cc1ccc(C(=O)Nc2ccc([N+](=O)[O-])cc2Cl)c(O)c1` [Compound 21, 4-Methyl-N-(2-chloro-4-nitrophenyl)-2-hydroxybenzamide], for which the “antiviral efficacy in CPE screening” value in series [1] is listed as “diminished”. Further, in series [2], the PAMPA was 6.1 10^−6 cm/s. The corresponding values for `O=C(Nc1ccc([N+](=O)[O-])cc1Cl)c1cc(F)ccc1O` [Compound 22, 5-Fluoro-N-(2-chloro-4-nitrophenyl)-2-hydroxybenzamide] are “diminished” and 30.7 10^−6 cm/s. For `O=C(Nc1ccc(O[C@@H]2O[C@H](CO)[C@@H](O)[C@H](O)[C@H]2O)cc1)c1cc(Cl)ccc1O` [Compound 27, 5-Chloro-N-(4-phenyl-β-D-glucopyranoside)-2-hydroxybenzamide], the “antiviral efficacy in CPE screening” value in series [1] was “inactive”. The PAMPA in series [2] was 1.9 10^−6 cm/s.

In the case of `CC(C)C(=O)OC[C@H]1O[C@@H](n2ccc(NO)nc2=O)[C@H](O)[C@@H]1O` [Molnupiravir], the “reduction of the risk of hospitalization or death” value in the series with COVID-19 is 30%. Regarding `Cc1c(O)cccc1C(=O)N[C@@H](CSc1ccccc1)[C@H](O)CN1C[C@H]2CCCC[C@H]2C[C@H]1C(=O)NC(C)(C)C` [Nelfinavir], the “phosphatidylserine externalization triggered by ionomycin” value with TMEM16F (500 nM) is on record as “no inhibition”.
